Experiments:
[1] = system: Puccinia recondita f. sp. tritici; test: Example A1: fungicidal activity against Puccinia recondita f. sp. tritici / wheat / leaf disc preventative (brown rust); assay type: in vivo; settings: foliar, 200 ppm in the applied formulation, wheat leaf segments, compared to untreated, read-out: disease control
Description: (§1) Leaf disks or leaf segments of various plant species are cut from plants grown in a greenhouse. The cut leaf disks or segments are placed in multiwell plates (24-well format) onto water agar. The leaf disks are sprayed with a test solution before (preventative) or after (curative) inoculation. Compounds to be tested are prepared as DMSO solutions (max. 10 mg/mL) which are diluted to the appropriate concentration with 0.025% Tween20 just before spraying. The inoculated leaf disks or segments are incubated under defined conditions (temperature, relative humidity, light, etc.) according to the respective test system. A single evaluation of disease level is carried out 3 to 14 days after inoculation, depending on the pathosystem. Percent disease control relative to the untreated check leaf disks or segments is then calculated.
Wheat leaf segments cv. Kanzler were placed on agar in multiwell plates (24-well format) and sprayed with the formulated test compound diluted in water. The leaf disks were inoculated with a spore suspension of the fungus 1 day after application. The inoculated leaf segments were incubated at 19° C. and 75% relative humidity (rh) under a light regime of 12 hours light/12 hours darkness in a climate cabinet and the activity of a compound was assessed as percent disease control compared to untreated when an appropriate level of disease damage appears in untreated check leaf segments (7 to 9 days after application).

[2] = system: Puccinia recondita f. sp. tritici; test: Example A2: fungicidal activity against Puccinia recondita f. sp. tritici / wheat / leaf disc curative (brown rust); assay type: in vivo; settings: foliar, 24 h, 200 ppm in the applied formulation, curative (applied 1 day after inoculation), wheat leaf segments, read-out: disease control
Description: as §1
Wheat leaf segments cv. Kanzler are placed on agar in multiwell plates (24-well format). The leaf segments are then inoculated with a spore suspension of the fungus. Plates were stored in darkness at 19° C. and 75% relative humidity. The formulated test compound diluted in water was applied 1 day after inoculation. The leaf segments were incubated at 19° C. and 75% relative humidity under a light regime of 12 hours light/12 hours darkness in a climate cabinet and the activity of a compound was assessed as percent disease control compared to untreated when an appropriate level of disease damage appears in untreated check leaf segments (6 to 8 days after application).

[3] = system: Glomerella lagenarium (Colletotrichum lagenarium); test: Example A4: fungicidal activity against Glomerella lagenarium (Colletotrichum lagenarium) liquid culture / cucumber / preventative (anthracnose); assay type: cell-based; settings: Colletotrichum orbiculare, 20 ppm in the applied formulation, growth measured photometrically 3 to 4 days after application, read-out: disease control
Description: Mycelia fragments or conidia suspensions of a fungus prepared either freshly from liquid cultures of the fungus or from cryogenic storage, are directly mixed into nutrient broth. DMSO solutions of the test compound (max. 10 mg/mL) are diluted with 0.025% Tween20 by a factor of 50 and 10 μL of this solution is pipetted into a microtiter plate (96-well format). The nutrient broth containing the fungal spores/mycelia fragments is then added to give an end concentration of the tested compound. The test plates are incubated in the dark at 24° C. and 96% relative humidity. The inhibition of fungal growth is determined photometrically after 2 to 7 days, depending on the pathosystem, and percent antifungal activity relative to the untreated check is calculated. Conidia of the fungus from cryogenic storage are directly mixed into nutrient broth (PDB—potato dextrose broth). After placing a (DMSO) solution of test compound into a microtiter plate (96-well format), the nutrient broth containing the fungal spores is added.

[4] = system: Phakopsora pachrhizi; test: Example A3: fungicidal activity against Phakopsora pachrhizi / soybean / leaf disc preventative (Asian soybean rust); assay type: in vivo; settings: Phakopsora pachyrhizi, foliar, 200 ppm in the applied formulation, soybean leaf disks, read-out: disease control
Description: as §1
Soybean leaf disks are placed on water agar in multiwell plates (24-well format) and sprayed with the formulated test compound diluted in water. One day after application leaf discs are inoculated by spraying a spore suspension on the lower leaf surface. After an incubation period in a climate cabinet of 24-36 hours in darkness at 20° C. and 75% rh leaf disc are kept at 20° C. with 12 h light/day and 75% rh. The activity of a compound is assessed as percent disease control compared to untreated when an appropriate level of disease damage appears in untreated check leaf disks (12 to 14 days after application).

Row | SMILES | pest or weed control at 200 ppm [1] [%] | pest or weed control at 200 ppm [2] [%] | inhibition of growth at 20 ppm [3] [%] | pest or weed control at 200 ppm [4] [%] | melting point [°C]
1 | FC(F)(F)c1ncn(Cc2ccc(-c3noc(C(F)(F)F)n3)cc2)n1 [X.01, 5-(trifluoromethyl)-3-[4-[[3-(trifluoromethyl)-1,2,4-triazol-1-yl]methyl]phenyl]-1,2,4-oxadiazole] | ≥ 80 | ≥ 80 | ≥ 80 | ≥ 80 | 68.2 to 70.1
2 | N#Cc1ncnn1Cc1ccc(-c2noc(C(F)(F)F)n2)cc1 [X.02, 2-[[4-[5-(trifluoromethyl)-1,2,4-oxadiazol-3-yl]phenyl]methyl]-1,2,4-triazole-3-carbonitrile] | ≥ 80 | ≥ 80 | ≥ 80 | ≥ 80 | 
3 | CCOC(=O)c1cnn(Cc2ccc(-c3noc(C(F)(F)F)n3)cc2)c1 [X.03, ethyl 1-[[4-[5-(trifluoromethyl)-1,2,4-oxadiazol-3-yl]phenyl]methyl]pyrazole-4-carboxylate] | ≥ 80 | ≥ 80 | ≥ 80 | ≥ 80 | 
4 | O=C(NC1CC1)c1cnn(Cc2ccc(-c3noc(C(F)(F)F)n3)cc2)c1 [X.04, N-cyclopropyl-1-[[4-[5-(trifluoromethyl)-1,2,4-oxadiazol-3-yl]phenyl]methyl]pyrazole-4-carboxamide] | ≥ 80 | ≥ 80 | ≥ 80 | ≥ 80 | 189 to 194
5 | CN(C)C(=O)c1cnn(Cc2ccc(-c3noc(C(F)(F)F)n3)cc2)c1 [X.05, N,N-dimethyl-1-[[4-[5-(trifluoromethyl)-1,2,4-oxadiazol-3-yl]phenyl]methyl]pyrazole-4-carboxamide] | ≥ 80 | ≥ 80 | ≥ 80 | ≥ 80 | 124 to 129
6 | CNC(=O)c1cnn(Cc2ccc(-c3noc(C(F)(F)F)n3)cc2)c1 [X.06, N-methyl-1-[[4-[5-(trifluoromethyl)-1,2,4-oxadiazol-3-yl]phenyl]methyl]pyrazole-4-carboxamide] | ≥ 80 | ≥ 80 | ≥ 80 | ≥ 80 | 156 to 161
7 | CN(C)c1ncn(Cc2ccc(-c3noc(C(F)(F)F)n3)cc2)n1 [X.07, N,N-dimethyl-1-[[4-[5-(trifluoromethyl)-1,2,4-oxadiazol-3-yl]phenyl]methyl]-1,2,4-triazol-3-amine] | ≥ 80 | ≥ 80 | ≥ 80 | ≥ 80 | 
8 | CCSc1ncnn1Cc1ccc(-c2noc(C(F)(F)F)n2)cc1 [X.08, 3-[4-[(5-ethylsulfanyl-1,2,4-triazol-1-yl)methyl]phenyl]-5-(trifluoromethyl)-1,2,4-oxadiazole] | ≥ 80 | ≥ 80 | ≥ 80 | ≥ 80 | 
9 | FC(F)(F)c1nc(-c2ccc(Cn3nnc4ncccc43)cc2)no1 [X.09, 3-[4-(triazolo[4,5-b]pyridin-1-ylmethyl)phenyl]-5-(trifluoromethyl)-1,2,4-oxadiazole] | ≥ 80 | ≥ 80 | ≥ 80 | ≥ 80 | 
10 | FC(F)(F)c1nc(-c2ccc(Cn3nc4cccnc4n3)cc2)no1 [X.10, 3-[4-(triazolo[4,5-b]pyridin-2-ylmethyl)phenyl]-5-(trifluoromethyl)-1,2,4-oxadiazole] | ≥ 80 | ≥ 80 | ≥ 80 | ≥ 80 | 121 to 122
11 | FC(F)(F)c1nc(-c2ccc(Cn3nnc4cccnc43)cc2)no1 [X.11, 3-[4-(triazolo[4,5-b]pyridin-3-ylmethyl)phenyl]-5-(trifluoromethyl)-1,2,4-oxadiazole] | ≥ 80 | ≥ 80 | ≥ 80 | ≥ 80 | 143 to 144
12 | COC(=O)c1cnn(Cc2ccc(-c3noc(C(F)(F)F)n3)cc2)c1 [X.12, methyl 1-[[4-[5-(trifluoromethyl)-1,2,4-oxadiazol-3-yl]phenyl]methyl]pyrazole-4-carboxylate] | ≥ 80 | ≥ 80 | ≥ 80 | ≥ 80 | 122 to 129
13 | CCOC(=O)c1cnn(Cc2ccc(-c3noc(C(F)(F)F)n3)c(F)c2)c1 [X.13, ethyl 1-[[3-fluoro-4-[5-(trifluoromethyl)-1,2,4-oxadiazol-3-yl]phenyl]methyl]pyrazole-4-carboxylate] | ≥ 80 |  | ≥ 80 | ≥ 80 | 131 to 135
14 | CCN(CC)C(=O)c1cnn(Cc2ccc(-c3noc(C(F)(F)F)n3)cc2)c1 [X.14, N,N-diethyl-1-[[4-[5-(trifluoromethyl)-1,2,4-oxadiazol-3-yl]phenyl]methyl]pyrazole-4-carboxamide] | ≥ 80 | ≥ 80 | ≥ 80 | ≥ 80 | 86 to 96
15 | CON(C)C(=O)c1cnn(Cc2ccc(-c3noc(C(F)(F)F)n3)cc2)c1 [X.15, N-methoxy-N-methyl-1-[[4-[5-(trifluoromethyl)-1,2,4-oxadiazol-3-yl]phenyl]methyl]pyrazole-4-carboxamide] | ≥ 80 | ≥ 80 | ≥ 80 | ≥ 80 | 102 to 112
16 | CCCOC(=O)c1cnn(Cc2ccc(-c3noc(C(F)(F)F)n3)cc2)c1 [X.16, propyl 1-[[4-[5-(trifluoromethyl)-1,2,4-oxadiazol-3-yl]phenyl]methyl]pyrazole-4-carboxylate] | ≥ 80 | ≥ 80 | ≥ 80 | ≥ 80 | 105 to 115
17 | NC(=O)c1cnn(Cc2ccc(-c3noc(C(F)(F)F)n3)cc2)c1 [X.19, 1-[[4-[5-(trifluoromethyl)-1,2,4-oxadiazol-3-yl]phenyl]methyl]pyrazole-4-carboxamide] | ≥ 80 | ≥ 80 | ≥ 80 | ≥ 80 | 
18 | CON=Cc1cnn(Cc2ccc(-c3noc(C(F)(F)F)n3)cc2)c1 [X.20, N-methoxy-1-[1-[[4-[5-(trifluoromethyl)-1,2,4-oxadiazol-3-yl]phenyl]methyl]pyrazol-4-yl]methanimine] | ≥ 80 | ≥ 80 | ≥ 80 | ≥ 80 | 
19 | CCOC(=O)c1cnn(C(C)c2ccc(-c3noc(C(F)(F)F)n3)cc2)c1 (centres unmarked) [X.21, ethyl 1-[1-[4-[5-(trifluoromethyl)-1,2,4-oxadiazol-3-yl]phenyl]ethyl]pyrazole-4-carboxylate] | ≥ 80 | ≥ 80 | ≥ 80 | ≥ 80 | 
